# US8481750B2 (Boehringer Ingelheim International GmbH, priority 2009, dated 2013)
# Molecular target: LFA-1 binding to ICAM-1 (Homo sapiens, UniProt P05107+P20701)
# Assay: Inhibition of LFA-1 binding to ICAM-1 (LFA-1/Biotin-sICAM-1 AlphaScreen molecular assay)
# Conditions: highest compound concentration 1 μM in 1% DMSO, 37° C., 90 minutes
# Source text: Assay to Determine Inhibition of LFA-1 Binding to ICAM-1
# This assay protocol is designed to study the direct antagonism, by a test compound, of the interaction of ICAM-1 with the Leukointegrin CD18/CD11a (LFA-1).
# The LFA-1/Biotin-sICAM-1 molecular assay measures the ability of test compounds to inhibit binding of LFA-1 to Biotinylated-sICAM using AlphaScreen technology (Ref: Wilson, J, Rossi, C P, Carboni, S, Fremaux, C, Perrin, D, Soto, C, Kosco-Vilbois, M, and Scheer, A: A Homogeneous 384-Well High-Throughput Binding Assay for a TNF Receptor Using Alphascreen Technology. J Biomol Screen 2003; 8:522-532) that uses TS2/4(anti-LFA-1)-custom conjugated AlphaLisa acceptor beads and streptavidin-coated donor beads from PerkinElmer. The assay was performed in white OptiPlates-384 in a volume of 60 μL using assay buffer (Dulbecco's PBS containing calcium and magnesium, 2 mM MgCl2, 0.1 mM PMSF, 0.1% BSA, pH 7.1). To each well, Biotin-sICAM was added followed by purified LFA-1 (in buffer of 50 mM triethylamine, 150 mM NaCl, 1% beta octylglucoside, 2 mM MgCl2 neutralized to pH with 1M Tris-HCl, pH 7.5). For compound testing, compound was added in 5 uL to the above in 25 uL. LFA-1 and Biotin-sICAM-1 were used at concentrations that would yield a signal to background ratio of 8-10. The highest concentration of compound was 1 μM in 1% DMSO. Positive controls were wells without compound containing LFA-1, while blanks were wells without both compound and LFA-1. Plates were mixed and incubated at 37° C. for 90 minutes. This was followed by addition of 15 μL/well TS2/4-congugated acceptor beads diluted in PBS containing 0.1% BSA for a final concentration of 10 μg/mL. The plates were mixed and incubated in the dark for 30 minutes at room temperature followed by addition of 15 μL/well streptavidin-coated donor beads diluted in PBS containing 0.1% BSA at a final concentration of 15 μg/mL. The plates were mixed and incubated in the dark for 60 minutes at room temperature and then read on an EnVision Multilabel Reader using AlphaScreen 384-well OptiPlate protocol.
# LFA-1 binding to ICAM-1, sequence (P20701 26-1170): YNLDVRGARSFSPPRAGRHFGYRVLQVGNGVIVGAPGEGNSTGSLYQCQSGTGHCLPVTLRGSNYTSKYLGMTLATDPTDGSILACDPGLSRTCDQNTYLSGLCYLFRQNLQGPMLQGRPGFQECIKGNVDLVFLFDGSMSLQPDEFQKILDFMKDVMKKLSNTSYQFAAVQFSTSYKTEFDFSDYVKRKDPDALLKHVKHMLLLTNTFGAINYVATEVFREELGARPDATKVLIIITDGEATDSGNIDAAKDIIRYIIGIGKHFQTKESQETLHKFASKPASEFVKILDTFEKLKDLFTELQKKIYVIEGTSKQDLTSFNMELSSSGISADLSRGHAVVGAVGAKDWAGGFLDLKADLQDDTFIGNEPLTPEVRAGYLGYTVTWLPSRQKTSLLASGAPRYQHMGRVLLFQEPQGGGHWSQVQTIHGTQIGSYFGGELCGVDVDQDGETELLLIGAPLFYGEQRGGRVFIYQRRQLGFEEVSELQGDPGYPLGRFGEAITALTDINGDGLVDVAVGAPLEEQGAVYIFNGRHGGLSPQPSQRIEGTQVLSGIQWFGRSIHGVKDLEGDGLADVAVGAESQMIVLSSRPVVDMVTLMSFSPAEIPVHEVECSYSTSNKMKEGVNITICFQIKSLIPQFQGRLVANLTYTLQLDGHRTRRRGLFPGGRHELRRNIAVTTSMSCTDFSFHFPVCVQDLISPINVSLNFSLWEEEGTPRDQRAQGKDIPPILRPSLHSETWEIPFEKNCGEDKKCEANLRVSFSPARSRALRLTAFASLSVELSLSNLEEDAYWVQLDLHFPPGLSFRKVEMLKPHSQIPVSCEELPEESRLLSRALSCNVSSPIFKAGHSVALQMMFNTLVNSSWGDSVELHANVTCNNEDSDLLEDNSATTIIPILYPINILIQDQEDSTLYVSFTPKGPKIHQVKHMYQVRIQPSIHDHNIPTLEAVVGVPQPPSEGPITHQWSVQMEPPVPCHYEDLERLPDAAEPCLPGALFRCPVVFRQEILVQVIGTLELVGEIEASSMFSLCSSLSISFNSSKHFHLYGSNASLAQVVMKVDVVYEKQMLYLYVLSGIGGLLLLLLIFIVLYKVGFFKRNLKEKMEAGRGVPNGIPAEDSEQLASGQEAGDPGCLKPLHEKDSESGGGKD
# LFA-1 binding to ICAM-1, sequence (P05107 23-769): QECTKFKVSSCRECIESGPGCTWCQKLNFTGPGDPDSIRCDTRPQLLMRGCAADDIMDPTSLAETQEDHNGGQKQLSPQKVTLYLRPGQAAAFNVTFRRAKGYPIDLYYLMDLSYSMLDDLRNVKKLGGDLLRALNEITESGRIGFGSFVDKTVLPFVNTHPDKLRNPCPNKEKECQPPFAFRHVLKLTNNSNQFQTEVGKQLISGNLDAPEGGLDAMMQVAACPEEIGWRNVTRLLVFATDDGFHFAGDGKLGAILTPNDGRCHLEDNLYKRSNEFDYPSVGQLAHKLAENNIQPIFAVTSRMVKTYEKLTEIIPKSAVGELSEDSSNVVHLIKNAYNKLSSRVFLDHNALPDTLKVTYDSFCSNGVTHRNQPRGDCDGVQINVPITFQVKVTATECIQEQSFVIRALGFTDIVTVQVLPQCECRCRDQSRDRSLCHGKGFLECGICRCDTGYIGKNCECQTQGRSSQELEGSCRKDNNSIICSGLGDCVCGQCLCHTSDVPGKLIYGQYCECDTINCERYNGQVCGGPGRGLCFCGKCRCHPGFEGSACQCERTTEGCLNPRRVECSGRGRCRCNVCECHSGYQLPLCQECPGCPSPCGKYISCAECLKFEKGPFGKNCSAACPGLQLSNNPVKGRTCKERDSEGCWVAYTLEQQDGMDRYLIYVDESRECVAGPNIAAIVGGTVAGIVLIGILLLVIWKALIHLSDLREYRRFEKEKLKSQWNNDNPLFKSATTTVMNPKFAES
row,Compound,IC50 [pM]
1,CN(C)C(=O)c1ccnc(C2(NC(=O)C3(NC(=O)c4cnc5n4[C@](C)(Cc4ccc(C#N)cc4)C(=O)N5c4cc(Cl)cc(Cl)c4)CC3)CC2)c1 [compound 38],870
2,C[C@@]1(Cc2ccc(C#N)cc2)C(=O)N(c2cc(Cl)cc(Cl)c2)c2ncc(C(=O)NC3(C(=O)NC4(c5cccc(C(=O)N6CCNCC6)n5)CC4)CC3)n21 [compound 39],3600
3,C[C@@]1(Cc2ccc(C#N)cc2)C(=O)N(c2cc(Cl)cc(Cl)c2)c2ncc(C(=O)NC3(C(=O)NC4(c5cccc(C(=O)NCCN)n5)CC4)CC3)n21 [compound 40],1300
4,COCCNC(=O)c1ccc(C2(NC(=O)C3(NC(=O)c4cnc5n4[C@](C)(Cc4ccc(C#N)cc4)C(=O)N5c4cc(Cl)cc(Cl)c4)CC3)CC2)nc1 [compound 41],140
5,C[C@@]1(Cc2ccc(C#N)cc2)C(=O)N(c2cc(Cl)cc(Cl)c2)c2ncc(C(=O)NC3(C(=O)NC4(c5ccc(C(=O)N6CCOCC6)cn5)CC4)CC3)n21 [compound 42],350
6,C[C@@]1(Cc2ccc(C#N)cc2)C(=O)N(c2cc(Cl)cc(Cl)c2)c2ncc(C(=O)NC3(C(=O)NC4(c5cc(C(=O)N6CCCC(C(N)=O)C6)ccn5)CC4)CC3)n21 (stereo partly drawn) [compound 43],740
7,C[C@@]1(Cc2ccc(C#N)cc2)C(=O)N(c2cc(Cl)cc(Cl)c2)c2ncc(C(=O)NC3(C(=O)NC4(c5cc(C(=O)N6CCCCC6CO)ccn5)CC4)CC3)n21 (stereo partly drawn) [compound 44],880
8,CC(=O)N(C)C1CCN(C(=O)c2cccc(C3(NC(=O)C4(NC(=O)c5cnc6n5[C@](C)(Cc5ccc(C#N)cc5)C(=O)N6c5cc(Cl)cc(Cl)c5)CC4)CC3)n2)C1 (stereo partly drawn) [compound 45],4500
9,CC(NC(=O)c1ccc(C2(NC(=O)C3(NC(=O)c4cnc5n4[C@](C)(Cc4ccc(C#N)cc4)C(=O)N5c4cc(Cl)cc(Cl)c4)CC3)CC2)nc1)c1ccncc1 (stereo partly drawn) [compound 46],780
10,CC(NC(=O)c1cccc(C2(NC(=O)C3(NC(=O)c4cnc5n4[C@](C)(Cc4ccc(C#N)cc4)C(=O)N5c4cc(Cl)cc(Cl)c4)CC3)CC2)n1)c1cccnc1 (stereo partly drawn) [compound 47],3900
11,C[C@@]1(Cc2ccc(C#N)cc2)C(=O)N(c2cc(Cl)cc(Cl)c2)c2ncc(C(=O)NC3(C(=O)NC4(c5cccc(C(=O)N6CC[C@@H](O)C6)n5)CC4)CC3)n21 [compound 48],2400
12,C[C@H](CO)NC(=O)c1ccnc(C2(NC(=O)C3(NC(=O)c4cnc5n4[C@](C)(Cc4ccc(C#N)cc4)C(=O)N5c4cc(Cl)cc(Cl)c4)CC3)CC2)c1 [compound 49],560
13,C[C@@]1(Cc2ccc(C#N)cc2)C(=O)N(c2cc(Cl)cc(Cl)c2)c2ncc(C(=O)NC3(C(=O)NC4(c5ccc(C(=O)NCc6ccncc6)cn5)CC4)CC3)n21 [compound 50],970
14,C[C@@]1(Cc2ccc(C#N)cc2)C(=O)N(c2cc(Cl)cc(Cl)c2)c2ncc(C(=O)NC3(C(=O)NC4(c5cccc(C(=O)N6CC(O)C6)n5)CC4)CC3)n21 [compound 51],580
15,C[C@@H](NC(=O)c1ccnc(C2(NC(=O)C3(NC(=O)c4cnc5n4[C@](C)(Cc4ccc(C#N)cc4)C(=O)N5c4cc(Cl)cc(Cl)c4)CC3)CC2)c1)c1ccccc1 [compound 53],2400
16,CC(=O)NC1CCN(C(=O)c2ccnc(C3(NC(=O)C4(NC(=O)c5cnc6n5[C@](C)(Cc5ccc(C#N)cc5)C(=O)N6c5cc(Cl)cc(Cl)c5)CC4)CC3)c2)C1 (stereo partly drawn) [compound 54],1200
17,C[C@@]1(Cc2ccc(C#N)cc2)C(=O)N(c2cc(Cl)cc(Cl)c2)c2ncc(C(=O)NC3(C(=O)NC4(c5ccc(C(=O)N6CCNCC6)cn5)CC4)CC3)n21 [compound 56],600
18,C[C@@]1(Cc2ccc(C#N)cc2)C(=O)N(c2cc(Cl)cc(Cl)c2)c2ncc(C(=O)NC3(C(=O)NC4(c5cccc(C(=O)NCCC(N)=O)n5)CC4)CC3)n21 [compound 57],820
19,C[C@@]1(Cc2ccc(C#N)cc2)C(=O)N(c2cc(Cl)cc(Cl)c2)c2ncc(C(=O)NC3(C(=O)NC4(c5cc(C(=O)N6CCOCC6)ccn5)CC4)CC3)n21 [compound 58],700
20,CN(C)C1CCN(C(=O)c2ccc(C3(NC(=O)C4(NC(=O)c5cnc6n5[C@](C)(Cc5ccc(C#N)cc5)C(=O)N6c5cc(Cl)cc(Cl)c5)CC4)CC3)nc2)C1 (stereo partly drawn) [compound 61],1800
21,CN(C)CCNC(=O)c1ccnc(C2(NC(=O)C3(NC(=O)c4cnc5n4[C@](C)(Cc4ccc(C#N)cc4)C(=O)N5c4cc(Cl)cc(Cl)c4)CC3)CC2)c1 [compound 62],1100

row,Compound,IC50 [pM]
1,CN(C)CCNC(=O)c1cccc(C2(NC(=O)C3(NC(=O)c4cnc5n4[C@](C)(Cc4ccc(C#N)cc4)C(=O)N5c4cc(Cl)cc(Cl)c4)CC3)CC2)n1 [compound 63],1700
2,C[C@@]1(Cc2ccc(C#N)cc2)C(=O)N(c2cc(Cl)cc(Cl)c2)c2ncc(C(=O)NC3(C(=O)NC4(c5cc(C(=O)NCc6ccncc6)ccn5)CC4)CC3)n21 [compound 64],340
3,C[C@@H](NC(=O)c1ccc(C2(NC(=O)C3(NC(=O)c4cnc5n4[C@](C)(Cc4ccc(C#N)cc4)C(=O)N5c4cc(Cl)cc(Cl)c4)CC3)CC2)nc1)c1ccccc1 [compound 65],2100
4,C[C@@]1(Cc2ccc(C#N)cc2)C(=O)N(c2cc(Cl)cc(Cl)c2)c2ncc(C(=O)NC3(C(=O)NC4(c5ccc(C(=O)NC(CO)CO)cn5)CC4)CC3)n21 [compound 66],280
5,C[C@@]1(Cc2ccc(C#N)cc2)C(=O)N(c2cc(Cl)cc(Cl)c2)c2ncc(C(=O)NC3(C(=O)NC4(c5cccc(C(=O)N6CCC[C@@H]6C(N)=O)n5)CC4)CC3)n21 [compound 67],2600
6,CC(=O)NCCNC(=O)c1cccc(C2(NC(=O)C3(NC(=O)c4cnc5n4[C@](C)(Cc4ccc(C#N)cc4)C(=O)N5c4cc(Cl)cc(Cl)c4)CC3)CC2)n1 [compound 68],500
7,CC(C)(O)CNC(=O)c1ccnc(C2(NC(=O)C3(NC(=O)c4cnc5n4[C@](C)(Cc4ccc(C#N)cc4)C(=O)N5c4cc(Cl)cc(Cl)c4)CC3)CC2)c1 [compound 69],470
8,C[C@@]1(Cc2ccc(C#N)cc2)C(=O)N(c2cc(Cl)cc(Cl)c2)c2ncc(C(=O)NC3(C(=O)NC4(c5ccc(C(=O)NC6CCC6)cn5)CC4)CC3)n21 [compound 71],740
9,C[C@@]1(Cc2ccc(C#N)cc2)C(=O)N(c2cc(Cl)cc(Cl)c2)c2ncc(C(=O)NC3(C(=O)NC4(c5cc(C(=O)NCc6cccnc6)ccn5)CC4)CC3)n21 [compound 72],450
10,CC(O)CNC(=O)c1ccc(C2(NC(=O)C3(NC(=O)c4cnc5n4[C@](C)(Cc4ccc(C#N)cc4)C(=O)N5c4cc(Cl)cc(Cl)c4)CC3)CC2)nc1 (stereo partly drawn) [compound 73],370
11,CC(O)CNC(=O)c1cccc(C2(NC(=O)C3(NC(=O)c4cnc5n4[C@](C)(Cc4ccc(C#N)cc4)C(=O)N5c4cc(Cl)cc(Cl)c4)CC3)CC2)n1 (stereo partly drawn) [compound 74],1400
12,COCCNC(=O)c1cccc(C2(NC(=O)C3(NC(=O)c4cnc5n4[C@](C)(Cc4ccc(C#N)cc4)C(=O)N5c4cc(Cl)cc(Cl)c4)CC3)CC2)n1 [compound 75],2200
13,C[C@@]1(Cc2ccc(C#N)cc2)C(=O)N(c2cc(Cl)cc(Cl)c2)c2ncc(C(=O)NC3(C(=O)NC4(c5cc(C(=O)NCc6ccco6)ccn5)CC4)CC3)n21 [compound 76],790
14,C[C@@]1(Cc2ccc(C#N)cc2)C(=O)N(c2cc(Cl)cc(Cl)c2)c2ncc(C(=O)NC3(C(=O)NC4(c5ccc(C(=O)NCCN)cn5)CC4)CC3)n21 [compound 78],680
15,C[C@@]1(Cc2ccc(C#N)cc2)C(=O)N(c2cc(Cl)cc(Cl)c2)c2ncc(C(=O)NC3(C(=O)NC4(c5cc(C(=O)NCc6ccccn6)ccn5)CC4)CC3)n21 [compound 79],670
16,C[C@@]1(Cc2ccc(C#N)cc2)C(=O)N(c2cc(Cl)cc(Cl)c2)c2ncc(C(=O)NC3(C(=O)NC4(c5cc(C(=O)N6CCCC(CO)C6)ccn5)CC4)CC3)n21 (stereo partly drawn) [compound 80],990
17,C[C@@]1(Cc2ccc(C#N)cc2)C(=O)N(c2cc(Cl)cc(Cl)c2)c2ncc(C(=O)NC3(C(=O)NC4(c5ccc(C(=O)NCc6ccccc6)cn5)CC4)CC3)n21 [compound 81],1500
18,C[C@@H](NC(=O)c1cccc(C2(NC(=O)C3(NC(=O)c4cnc5n4[C@](C)(Cc4ccc(C#N)cc4)C(=O)N5c4cc(Cl)cc(Cl)c4)CC3)CC2)n1)C(N)=O [compound 83],1300
19,C[C@@]1(Cc2ccc(C#N)cc2)C(=O)N(c2cc(Cl)cc(Cl)c2)c2ncc(C(=O)NC3(C(=O)NC4(c5ccc(C(=O)NCCc6cccnc6)cn5)CC4)CC3)n21 [compound 84],530
20,C[C@@]1(Cc2ccc(C#N)cc2)C(=O)N(c2cc(Cl)cc(Cl)c2)c2ncc(C(=O)NC3(C(=O)NC4(c5ccc(C(=O)N6CCC(CO)CC6)cn5)CC4)CC3)n21 [compound 85],340
21,CC(C)(CO)NC(=O)c1ccc(C2(NC(=O)C3(NC(=O)c4cnc5n4[C@](C)(Cc4ccc(C#N)cc4)C(=O)N5c4cc(Cl)cc(Cl)c4)CC3)CC2)nc1 [compound 86],560
